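How tested: cells in 96-well plates exposed to compound for 48 hours at five concentrations. GI50 is the concentration that inhibits growth by half. The concentration for full growth arrest is given as TGI.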

What all share (assay): growth of human tumour cells (NCI), 48 h
Test [1] deals with SF-539 CNS.
In test [2] the test system is EKVX NSCLC.
In test [3] the test system is HOP-62 NSCLC.
For test [4], the system named is M14 melanoma.
The subject of test [5] is OVCAR-3 ovarian.
In test [6] the test system is UACC-257 melanoma.
Test [7] has as its system 786-0 renal.
The subject of test [8] is SR leukemia.
Test [9] deals with HT29 colon.
Test [10] relates to KM12 colon.

Turning to `Cc1nc(CN2CCCCC2)c(O)c(=O)[nH]1`, the TGI in test [1], in test [2], in test [3], in test [4], in test [5] and in test [6] was over 100 µM throughout. Also, the TGI in test [7], in [8], in test [9] and in [10] was over 100 µM each time.

For the molecule `N#CC(C#N)N=Nc1ccc(Br)cc1`, the GI50 in [1] was 3.57 µM; in [2] it was 6 µM; in [3] it was 27.1 µM; in test [4], 3.33 µM; in test [5], 2.5 µM; in test [6], 2.12 µM. Moreover, the GI50 in test [7] is 3.79 µM; in test [8], 3.22 µM; in test [9], 3.39 µM; in [10], 9.65 µM. For the same molecule, the TGI in [1] is 18.3 µM; in test [2] it was over 83 µM; in test [3] it was over 100 µM; in [4], 16.8 µM; in test [5], 15.4 µM; in [6] it was 7.54 µM. The TGI in [7] is 14.1 µM; in [8], over 49.8 µM; in test [9], over 38.5 µM; in [10], over 100 µM.

On to `CCN(CC)c1ccc2c(c1)Oc1nc(N)c(C#N)c(N)c1C2Sc1ccc(OC)cc1` (centres undefined), for which the GI50 in test [1] was 1.64 µM; in test [2], 0.479 µM; in test [3], 1.88 µM; in test [4], 1.77 µM; in [5] it was 1.69 µM; in test [6], 1.98 µM. For the same molecule, the GI50 in test [7] is 1.74 µM; in test [8], 1.67 µM; in test [9] it was 2.1 µM; in test [10], 1.74 µM. For the same molecule, the TGI in [1] was 3.04 µM; in test [2] it was 1.97 µM; in [3], 3.43 µM; in [4], 3.33 µM; in test [5] it was 3.1 µM; in test [6], 3.48 µM. For the same molecule, the TGI is 3.22 µM in [7], 4.78 µM in test [8], 4.27 µM in test [9] and 3.73 µM in test [10].

On to `O=C(O)c1ccc(S(=O)(=O)Nc2ccc3oc4c(c3c2)C(=O)CCC4)cc1`, for which the GI50 in [1], in test [2], in test [3], in test [4], in test [5] and in test [6] was over 100 µM in each case. The GI50 in test [7], in test [8], in test [9] and in [10] was over 100 µM each time. In addition, the TGI in test [1], in [2], in [3], in test [4], in [5] and in test [6] was over 100 µM throughout. Moreover, the TGI in [7], in test [8], in test [9] and in test [10] was over 100 µM throughout.

For the molecule `Cc1cc(Nc2c3ccccc3nc3ccccc23)ccc1NS(C)(=O)=O`, the GI50 in test [1] was 3.74 µM; in test [3] it was 4.61 µM; in test [4], 3.69 µM; in test [5], 6.13 µM; in [6], 2.41 µM; in test [7], 4.73 µM. In addition, the GI50 in test [8] was 2.11 µM; in test [9], 3.38 µM; in test [10], 4.2 µM. The TGI in test [1] was found to be 14.9 µM; in test [3] it was 17.9 µM; in test [4], 14.1 µM; in [5] it was 20.1 µM; in test [6], 9.58 µM; in test [7], 16.7 µM. Besides, the values for the TGI in [8], in [9] and in [10] were 5.91 µM, 12.8 µM and 16.2 µM, respectively.

Regarding `COc1ccc(C[C@@H]2NC[C@@H](O)[C@@H]2OC(C)=O)cc1`, the GI50 was 9.48 µM in [1]; 1.55 µM in test [2]; 19.3 µM in test [3]; 11.8 µM in test [4]; 5.34 µM in test [5]; 2.33 µM in test [6]. Moreover, the GI50 in test [7] was 9 µM; in test [8], 6.9 µM; in test [10], 3.53 µM. Also, the TGI in [1] and in [8] was over 100 µM throughout.

Consider `CN(C)/N=C(/c1nc2ccc([N+](=O)[O-])cc2[nH]c1=O)C(O)c1ccco1` (centres undefined), for which the TGI in test [1], in [3], in test [4], in test [5], in test [6] and in [7] was over 100 µM in each case. Moreover, the TGI in test [8], in [9] and in test [10] was over 100 µM in each case.

Regarding `CN1CCN(c2ccc(Nc3nc(N)c(C(=O)c4ccc5c(c4)OCCO5)s3)cc2)CC1`, the GI50 in test [1] is 4.25 µM; in [3], 5.18 µM; in test [4], 3.99 µM; in test [5], 4.05 µM; in test [6], 3.97 µM; in test [7] it was 3.44 µM. For the same molecule, the GI50 in test [8] was 2.02 µM; in [9] it was 2.68 µM; in test [10], 4.06 µM. Besides, the TGI was 8.33 µM in test [1]; 13.2 µM in [3]; over 18.1 µM in test [4]; 9.69 µM in test [5]; 12.6 µM in test [6]; 8.23 µM in test [7]. Moreover, the TGI in test [8] was found to be 12.7 µM; in [9] it was 11.7 µM; in test [10] it was 16.1 µM.

`Nc1ccccc1NC(=O)c1ccc(CCCC(=O)Nc2ccc(C3CC3N)cc2)cc1` (centres undefined): the GI50 in test [1] is 0.972 µM; in test [2] it was 4.47 µM; in test [3] it was 2.01 µM; in test [4], 2.01 µM; in [5], 1.91 µM; in test [7] it was 3.5 µM. In addition, the results for the GI50 in test [8], in test [9] and in [10] were 0.738 µM, 0.995 µM and 3.63 µM, respectively. Also, the TGI in test [1] is 70.9 µM; in [2], over 100 µM; in test [3], 20.7 µM; in test [4], 15.4 µM; in [5], 11.3 µM; in test [7] it was 39.3 µM. Besides, the TGI in test [8], in [9] and in test [10] was over 100 µM each time.

Source of the values: PubChem BioAssay (NCI).
